Source: patent US10722518B2, “Oxazine derivative for use in the treatment or prevention of cerebral amyloid angiopathy” (Novartis AG, priority 2016, dated 2020)

Experiments:
[1] = First-in-human study: safety and tolerability; format: in vivo; settings: healthy elderly subjects ≥60 years
Source text: The purpose of this study was to determine the single and multiple maximum tolerated dose of Compound 1 and to assess the pharmacokinetic/pharmacodynamic (PK/PD) relationship using Aβ in CSF as primary PD biomarker.

[2] = test system: Aβ40 in CSF; test: 3-month dose-ranging study: Aβ40 in CSF; format: in vivo; settings: first-in-human and 3-month studies
Source text: This study is listed in ClinicalTrials.gov under the NCT02576639 Identifier code.
The primary purpose of this study was to expand on previous safety and tolerability data obtained over 2-week and 4-week duration in the first in human study and thereby allow initiation of future long-term efficacy trials in subjects at risk of AD and CAA. In addition, data relevant for Pharmacokinetic/Pharmacodynamic modeling was obtained in order to support dose selection decisions for future efficacy studies.
The extent of Aβ lowering was stable over time with PD steady-state being reached after approximately 2-3 weeks.
In the completed first-in-human and 3-month dose-ranging safety and tolerability clinical studies described in Examples 3 and 4, Aβ concentrations in CSF were obtained by means of lumbar punctures before the first dose (baseline) and respectively after 2 weeks and 3 months of multiple dosing. ApoE4 genotype also was obtained in the subjects who consented. The percent change from baseline in Aβ40 and Aβ42 concentrations was calculated in subjects who took the study treatment and had no major protocol deviation with potential impact on the evaluation of the pharmacodynamic effect. Tables 13 to 16 below provide summary statistics of the percent change from baseline by treatment group and ApoE genotype (E4 heterozygotes versus E4 non-carriers). […]

[3] = Off-target binding or activity

C[C@@]1(c2nc(NC(=O)c3ncc(C(F)(F)F)cc3Cl)ccc2F)CO[C@@](C)(C(F)(F)F)C(N)=N1 [Compound 1, N-(6-((3R,6R)-5-amino-3,6-dimethyl-6-(trifluoromethyl)-3,6-dihydro-2H-1,4-oxazin-3-yl)-5-fluoropyridin-2-yl)-3-chloro-5-(trifluoromethyl)picolinamide]
safety and tolerability ([1]; 300 mg QD over two weeks): safe and tolerated | safety and tolerability ([1]; 750 mg single dose): safe and tolerated | CSF Aβ40 and Aβ42 response to treatment, ApoE4 carriers vs non-carriers [2]: no difference | off-target binding or activity [3]: no relevant off-target binding or activity
